Measurements as given in PubChem BioAssay AID1963839 (Molecular Pharmacology Branch, DTP, NCI, 2024).

Test system: 817829-284-R-J1-PDC complex spheroid viability
Test: Anticancer human tumor 817829-284-R-J1-PDC patient-derived colon adenocarcinoma cell line growth inhibition [POLQ]
Settings: for IC50: curve of first compound; for viability, T/C: stronger effect = lower value
Procedure, shortened: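 PDC + HUVEC + MSC complex spheroids; POLQ inhibitors ± partner drugs; top conc. at/near clinical Cmax, else 10 microM (SN-38 1 microM), half-log dilutions; 37 degrees C, 5% CO2.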

[1] = second compound 0.0316 µM, first compound 0.0316 µM
[2] = second compound 0.0316 µM, first compound 0.1 µM
[3] = second compound 0.0316 µM, first compound 0.316 µM
[4] = second compound 0.0316 µM, first compound 1 µM
[5] = second compound 0.0316 µM, first compound 3.16 µM
[6] = second compound 0.0316 µM, first compound 10 µM
[7] = second compound 0.1 µM, first compound 0.0316 µM
[8] = second compound 0.1 µM, first compound 0.1 µM
[9] = second compound 0.1 µM, first compound 0.316 µM
[10] = second compound 0.1 µM, first compound 1 µM
[11] = second compound 0.1 µM, first compound 3.16 µM
[12] = second compound 0.1 µM, first compound 10 µM
[13] = second compound 0.316 µM, first compound 0.0316 µM
[14] = second compound 0.316 µM, first compound 0.1 µM
[15] = second compound 0.316 µM, first compound 0.316 µM
[16] = second compound 0.316 µM, first compound 1 µM
[17] = second compound 0.316 µM, first compound 3.16 µM
[18] = second compound 0.316 µM, first compound 10 µM
[19] = second compound 1 µM, first compound 0.0316 µM
[20] = second compound 1 µM, first compound 0.1 µM
[21] = second compound 1 µM, first compound 0.316 µM
[22] = second compound 1 µM, first compound 1 µM
[23] = second compound 1 µM, first compound 3.16 µM
[24] = second compound 1 µM, first compound 10 µM
[25] = second compound 3.16 µM, first compound 0.0316 µM
[26] = second compound 3.16 µM, first compound 0.1 µM
[27] = second compound 3.16 µM, first compound 0.316 µM
[28] = second compound 3.16 µM, first compound 1 µM
[29] = second compound 3.16 µM, first compound 3.16 µM
[30] = second compound 3.16 µM, first compound 10 µM
[31] = second compound 10 µM, first compound 0.0316 µM
[32] = second compound 10 µM, first compound 0.1 µM
[33] = second compound 10 µM, first compound 0.316 µM
[34] = second compound 10 µM, first compound 1 µM
[35] = second compound 10 µM, first compound 3.16 µM
[36] = second compound 10 µM, first compound 10 µM
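Further: spheroids exposed to compounds for 7 days.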
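Wherever viability, T/C is given: 100% = DMSO vehicle-treated spheroids.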

CNCc1ccc(-c2[nH]c3cc(F)cc4c3c2CCNC4=O)cc1 + Nc1ccc(C#CCN(C(=O)Cc2ncc(C(F)(F)F)cc2C(F)(F)F)c2ccc(F)cc2)nn1
IC50 (second compound 0.0316 µM): 6.74 µM | IC50 (second compound 0.1 µM): 7.78 µM | IC50 (second compound 0.316 µM): > 10 µM | IC50 (second compound 1 µM): > 10 µM | IC50 (second compound 3.16 µM): 7.27 µM | IC50 (second compound 10 µM): 8.04 µM | viability, T/C [1]: 85.2% | viability, T/C [2]: 83.8% | viability, T/C [3]: 86.4% | viability, T/C [4]: 73.8% | viability, T/C [5]: 67.4% | viability, T/C [6]: 41.2% | viability, T/C [7]: 81% | viability, T/C [8]: 97% | viability, T/C [9]: 83% | viability, T/C [10]: 73.8% | viability, T/C [11]: 65.3% | viability, T/C [12]: 45.8% | viability, T/C [13]: 80.6% | viability, T/C [14]: 88.7% | viability, T/C [15]: 82.8% | viability, T/C [16]: 60.8% | viability, T/C [17]: 65% | viability, T/C [18]: 52.9% | viability, T/C [19]: 97.7% | viability, T/C [20]: 86.5% | viability, T/C [21]: 90.1% | viability, T/C [22]: 73.3% | viability, T/C [23]: 74.3% | viability, T/C [24]: 48% | viability, T/C [25]: 103% | viability, T/C [26]: 83.6% | viability, T/C [27]: 83.2% | viability, T/C [28]: 85.8% | viability, T/C [29]: 83.6% | viability, T/C [30]: 37.3% | viability, T/C [31]: 86.2% | viability, T/C [32]: 75.7% | viability, T/C [33]: 76.9% | viability, T/C [34]: 79.5% | viability, T/C [35]: 75.2% | viability, T/C [36]: 44.1%

C#Cc1c(F)ccc2cc(O)cc(-c3ncc4c(N5CC6CCC(C5)N6)nc(OCC56CCCN5CC(F)C6)nc4c3F)c12 (stereo unspecified) + Cc1cccc(N(C)C(=O)C2C(O)CCN2c2nc(C)cc(C(F)(F)F)c2C#N)c1
IC50 (second compound 0.0316 µM): > 10 µM | IC50 (second compound 0.1 µM): > 10 µM | IC50 (second compound 0.316 µM): > 10 µM | IC50 (second compound 1 µM): 7.2 µM | IC50 (second compound 3.16 µM): > 10 µM | IC50 (second compound 10 µM): 8.06 µM | viability, T/C [1]: 104% | viability, T/C [2]: 112% | viability, T/C [3]: 85.5% | viability, T/C [4]: 85.9% | viability, T/C [5]: 112% | viability, T/C [6]: 60.9% | viability, T/C [7]: 93% | viability, T/C [8]: 75.6% | viability, T/C [9]: 88% | viability, T/C [10]: 95.1% | viability, T/C [11]: 136% | viability, T/C [12]: 76% | viability, T/C [13]: 62.5% | viability, T/C [14]: 75.8% | viability, T/C [15]: 95% | viability, T/C [16]: 97.9% | viability, T/C [17]: 79.7% | viability, T/C [18]: 63.5% | viability, T/C [19]: 94.7% | viability, T/C [20]: 86.9% | viability, T/C [21]: 93% | viability, T/C [22]: 118% | viability, T/C [23]: 97% | viability, T/C [24]: 31.2% | viability, T/C [25]: 108% | viability, T/C [26]: 82.3% | viability, T/C [27]: 86.1% | viability, T/C [28]: 87% | viability, T/C [29]: 97.3% | viability, T/C [30]: 89.4% | viability, T/C [31]: 99.7% | viability, T/C [32]: 108% | viability, T/C [33]: 90.2% | viability, T/C [34]: 96.4% | viability, T/C [35]: 89.3% | viability, T/C [36]: 40.7%

Cn1ncnc1[C@H]1c2n[nH]c(=O)c3cc(F)cc(c23)N[C@@H]1c1ccc(F)cc1 + Nc1ccc(C#CCN(C(=O)Cc2ncc(C(F)(F)F)cc2C(F)(F)F)c2ccc(F)cc2)nn1
IC50 (second compound 0.0316 µM): 0.0389 µM | IC50 (second compound 0.1 µM): 0.0435 µM | IC50 (second compound 0.316 µM): 0.0214 µM | IC50 (second compound 1 µM): 0.0375 µM | IC50 (second compound 3.16 µM): 0.0489 µM | IC50 (second compound 10 µM): 0.0265 µM | viability, T/C (second compound 0.0316 µM, first compound 0.000316 µM): 97.7% | viability, T/C (second compound 0.0316 µM, first compound 0.001 µM): 82.9% | viability, T/C (second compound 0.0316 µM, first compound 0.00316 µM): 85% | viability, T/C (second compound 0.0316 µM, first compound 0.01 µM): 63.8% | viability, T/C [1]: 55.5% | viability, T/C [2]: 35% | viability, T/C (second compound 0.1 µM, first compound 0.000316 µM): 79.9% | viability, T/C (second compound 0.1 µM, first compound 0.001 µM): 89.2% | viability, T/C (second compound 0.1 µM, first compound 0.00316 µM): 76.1% | viability, T/C (second compound 0.1 µM, first compound 0.01 µM): 69.5% | viability, T/C [7]: 58.7% | viability, T/C [8]: 30.9% | viability, T/C (second compound 0.316 µM, first compound 0.000316 µM): 107% | viability, T/C (second compound 0.316 µM, first compound 0.001 µM): 92.5% | viability, T/C (second compound 0.316 µM, first compound 0.00316 µM): 64.8% | viability, T/C (second compound 0.316 µM, first compound 0.01 µM): 64.2% | viability, T/C [13]: 47.4% | viability, T/C [14]: 31.7% | viability, T/C (second compound 1 µM, first compound 0.000316 µM): 94.8% | viability, T/C (second compound 1 µM, first compound 0.001 µM): 93.2% | viability, T/C (second compound 1 µM, first compound 0.00316 µM): 69.2% | viability, T/C (second compound 1 µM, first compound 0.01 µM): 65.6% | viability, T/C [19]: 55.2% | viability, T/C [20]: 37.1% | viability, T/C (second compound 3.16 µM, first compound 0.000316 µM): 87.3% | viability, T/C (second compound 3.16 µM, first compound 0.001 µM): 93.8% | viability, T/C (second compound 3.16 µM, first compound 0.00316 µM): 63.9% | viability, T/C (second compound 3.16 µM, first compound 0.01 µM): 67.4% | viability, T/C [25]: 58% | viability, T/C [26]: 41% | viability, T/C (second compound 10 µM, first compound 0.000316 µM): 107% | viability, T/C (second compound 10 µM, first compound 0.001 µM): 80.1% | viability, T/C (second compound 10 µM, first compound 0.00316 µM): 80.5% | viability, T/C (second compound 10 µM, first compound 0.01 µM): 61.6% | viability, T/C [31]: 49.7% | viability, T/C [32]: 32.4%
